Results published in paper PMC7562955 (Nature Communications, 2020).

Target: T1, human TLR9 (Homo sapiens, UniProt Q9NR96)
T1 construct: host or cells: HEK293 (TLR9/NF-κB/SEAPorter)
T1 sequence (Q9NR96 26-1032): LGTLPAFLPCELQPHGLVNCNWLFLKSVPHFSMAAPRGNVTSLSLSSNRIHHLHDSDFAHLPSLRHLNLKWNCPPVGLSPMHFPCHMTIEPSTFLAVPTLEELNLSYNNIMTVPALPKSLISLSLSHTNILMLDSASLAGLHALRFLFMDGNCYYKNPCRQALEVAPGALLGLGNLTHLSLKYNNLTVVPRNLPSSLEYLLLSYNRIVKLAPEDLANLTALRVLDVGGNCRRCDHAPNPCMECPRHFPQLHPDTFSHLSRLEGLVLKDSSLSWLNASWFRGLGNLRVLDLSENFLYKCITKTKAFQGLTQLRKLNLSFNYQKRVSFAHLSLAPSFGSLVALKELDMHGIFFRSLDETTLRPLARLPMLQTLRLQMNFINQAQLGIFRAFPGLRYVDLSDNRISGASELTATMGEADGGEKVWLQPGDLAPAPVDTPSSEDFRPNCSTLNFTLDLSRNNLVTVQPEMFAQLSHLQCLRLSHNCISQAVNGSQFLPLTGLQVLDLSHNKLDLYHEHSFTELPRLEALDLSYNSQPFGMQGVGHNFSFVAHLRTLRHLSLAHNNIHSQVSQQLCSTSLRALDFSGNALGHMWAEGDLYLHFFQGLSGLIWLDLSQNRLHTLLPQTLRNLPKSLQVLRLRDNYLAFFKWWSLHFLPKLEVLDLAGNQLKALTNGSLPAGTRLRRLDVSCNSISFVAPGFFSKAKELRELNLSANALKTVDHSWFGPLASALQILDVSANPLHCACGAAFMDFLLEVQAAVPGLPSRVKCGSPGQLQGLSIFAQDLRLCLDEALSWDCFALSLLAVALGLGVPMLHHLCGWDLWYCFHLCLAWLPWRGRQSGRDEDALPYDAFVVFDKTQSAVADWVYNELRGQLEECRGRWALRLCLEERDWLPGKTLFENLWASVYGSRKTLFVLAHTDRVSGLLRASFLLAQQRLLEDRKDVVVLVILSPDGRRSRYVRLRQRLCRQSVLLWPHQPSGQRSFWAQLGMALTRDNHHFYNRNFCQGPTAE
Test: Human TLR9 reporter gene inhibitory activity assay (NF-κB/SEAP HEK293)
Format: cell-based
Conditions: for human TLR9 activity, reporter signal: CpG2006 500 nM
Method: Compounds were dissolved in dimethyl sulfoxide. Before stimulation with compound, Human TLR7 reporter cell line (TLR7/NF-κB/SEAPorter^TM HEK293 cell, Novus Biological, USA), human TLR8 reporter cell line (TLR8/NF-κB/SEAPorter^TM HEK293 cell, Novus Biological), and human TLR9 reporter cell line (TLR9/NF-κB/SEAPorter^TM HEK293 cell, Novus Biological) were seeded in 96-well microtiter plate (AGC techno glass, Japan) at 5 × 10^4 cells/well in DMEM (GIBCO, United Kingdam) with 10 % fetal bovine serum (GIBCO), and 10 ug/ml Blastcidin S HCl (GIBCO) and incubated at 37 °C in 5% CO2. The plates were incubated over-night and then stimulated with various concentrations of compound. […] After 30 min, R848 (human TLR7/8 ligand, synthesized at Sumitomo Dainippon Pharma, Japan) or CpG2006 (human TLR9 ligand, Hokkaido System Science Co., Ltd., Japan) added to each well, wherein each final concentration were adjusted to 200 nM R848 (human TLR7), 30 μM R848 (human TLR8), or 500 nM CpG2006 (human TLR9). The plates were then incubated an additional 20 ± 1 h at 37 °C in 5% CO2 and then the secreted embryonic alkaline phosphatase (SEAP) activity was measured as activation of human TLR7, 8, and 9. The SEAP activity was evaluated as follows: pNPP (Invitrogen, USA) was added to the incubated sample (50 μl/well); after 15 min, 4 M sodium hydroxide solution (nacalai tesque, Japan) was added thereto (50 μl/well) to quench the reaction; and the absorbance of each sample was measured at 405 nm with microplate reader SpectraMax M4 (Molecular Devices, USA).

SMILES | inhibition of TLR9 | human TLR9 activity, reporter signal (compound 0.0001 nM (as headed)) | human TLR9 activity, reporter signal (compound 0.001 nM (as headed)) | human TLR9 activity, reporter signal (compound 0.003 nM (as headed)) | human TLR9 activity, reporter signal (compound 0.01 nM (as headed)) | human TLR9 activity, reporter signal (compound 0.03 nM (as headed)) | human TLR9 activity, reporter signal (compound 0.1 nM (as headed)) | human TLR9 activity, reporter signal (compound 0.3 nM (as headed)) | human TLR9 activity, reporter signal (compound 1 nM (as headed)) | human TLR9 activity, reporter signal (compound 3 nM (as headed)) | human TLR9 activity, reporter signal (compound 10 nM (as headed)) | human TLR9 activity, reporter signal (compound 30 nM (as headed)) | human TLR9 activity, reporter signal (compound 100 nM (as headed))
CCCCOc1nc(N)c2nc(-c3cccnc3)n(Cc3ccccc3)c2n1 [Cpd-5] | without causing any inhibition | 0.3823 | 0.4021 | 0.4541 | 0.4157 | 0.4224 | 0.4068 | 0.4193 | 0.3613 | 0.3381 | 0.3129 | 0.2475 | 0.2357
CCN(CCO)CCCC(C)Nc1ccnc2cc(Cl)ccc12 (centres unmarked) [HCQ, hydroxychloroquine, reference compound] | – | 0.3549 | – | – | 0.3663 | 0.3271 | 0.2912 | 0.1984 | 0.0758 | 0.0184 | -0.013 | -0.01145 | -0.00085
CCOc1nc(N)c2nc(-c3cncc(F)c3)n(Cc3ccc(CN4C[C@@H]5C[C@H]4CN5C)cc3)c2n1 [Cpd-6] | – | 0.3816 | 0.371 | 0.3771 | 0.3689 | 0.3826 | 0.3836 | 0.372 | 0.3752 | 0.3176 | 0.265 | 0.06893 | 0.01837
CCOc1nc(C)c2nc(-c3cncc(F)c3)n(Cc3ccc(CN4C[C@@H]5C[C@H]4CN5C)cc3)c2n1 [Cpd-7] | – | 0.3816 | 0.3944 | 0.4214 | 0.4209 | 0.4048 | 0.3963 | 0.3799 | 0.3655 | 0.3183 | 0.2034 | 0.05003 | -0.002975
